Several values for one entry are separate records, joined by “and”; a condition that tells them apart may be missing. Identical values can stand only once.
Legend:
CB1 (rCB1) = CB1 (rCB1) (Rattus norvegicus, UniProt P20272); test: Radioligand competition binding, [3H]-CP-55,940, rat brain membranes
hCB1 [1] = biological target: T1, hCB1 (Homo sapiens, UniProt P21554); test: bioSensAll ebBRET signaling profiling, hCB1; assay type: cell-based; set-up: host or cells: HEK293SL cells, transient PEI transfection; details: for Gi1 hCB1 response: Gi1 biosensor; for Gi1 hCB1 / GoB hCB1: single replicate values, FigS6a; for EC50: read-out: EC50 [95% CI]; for Emax: normalized to CP-55,940
hCB1 [2] = biological target: T1, hCB1; test: Lance Ultra cAMP accumulation assay, CHO cells; assay type: cell-based; set-up: expressed in transfected cells;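 note: human CB1R stably expressed in CHO cells, ligands co-incubated with forskolin at room temperature, read-out is lowering of forskolin-stimulated cAMP accumulation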

T1 sequence (P21554 whole entry): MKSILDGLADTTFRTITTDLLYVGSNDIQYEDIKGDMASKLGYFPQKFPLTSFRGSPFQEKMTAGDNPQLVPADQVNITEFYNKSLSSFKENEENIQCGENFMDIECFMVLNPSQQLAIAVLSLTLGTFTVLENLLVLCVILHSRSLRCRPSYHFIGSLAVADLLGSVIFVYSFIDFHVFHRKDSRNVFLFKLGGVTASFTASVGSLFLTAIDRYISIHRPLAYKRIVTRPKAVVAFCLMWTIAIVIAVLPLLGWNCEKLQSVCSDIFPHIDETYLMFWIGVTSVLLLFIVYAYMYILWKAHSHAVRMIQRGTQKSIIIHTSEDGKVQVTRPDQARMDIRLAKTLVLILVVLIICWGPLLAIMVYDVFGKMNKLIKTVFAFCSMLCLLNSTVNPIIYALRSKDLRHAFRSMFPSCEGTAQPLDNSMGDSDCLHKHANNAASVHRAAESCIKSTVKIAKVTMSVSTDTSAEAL
CB1 (rCB1), sequence (P20272 whole entry): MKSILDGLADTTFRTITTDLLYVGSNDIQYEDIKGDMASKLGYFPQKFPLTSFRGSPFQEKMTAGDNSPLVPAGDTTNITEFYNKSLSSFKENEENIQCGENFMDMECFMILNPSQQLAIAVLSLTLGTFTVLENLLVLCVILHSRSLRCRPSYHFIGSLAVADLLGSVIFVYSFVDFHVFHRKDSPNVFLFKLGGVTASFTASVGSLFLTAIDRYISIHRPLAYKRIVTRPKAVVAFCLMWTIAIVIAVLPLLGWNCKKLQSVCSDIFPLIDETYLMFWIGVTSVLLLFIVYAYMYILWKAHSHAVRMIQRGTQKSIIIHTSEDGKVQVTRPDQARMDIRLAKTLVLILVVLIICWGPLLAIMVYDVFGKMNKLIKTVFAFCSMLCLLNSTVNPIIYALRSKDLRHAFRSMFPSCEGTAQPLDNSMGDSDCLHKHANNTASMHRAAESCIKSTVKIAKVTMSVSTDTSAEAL

In the case of COC(=O)[C@](C)(NC(=O)c1cc(C)n(-c2cccc(C(F)(F)F)c2)n1)c1cccs1 [‘8690], the “pKi [95% CI]” value (CB1 (rCB1); rCB1) is reported as 7.1 [6.9 – 7.3], the Ki (CB1 (rCB1); read-out: Ki [95% CI], rCB1, [3H]-CP-55,940) is reported as 90.2 nM and the “Gi1 hCB1 response” value (hCB1 [1]; Log [Compound] (M) -4.63927) is reported as 107.576. For the same compound, the “Gi1 hCB1 response” value (hCB1 [1]; Log [Compound] (M) -5.05788) was 100.593, the “Gi1 hCB1 response” value (hCB1 [1]; Log [Compound] (M) -5.47381) was 88.91 and the “Gi1 hCB1 response” value (hCB1 [1]; Log [Compound] (M) -5.89285) was 68.8562. The “Gi1 hCB1 response” value (hCB1 [1]; Log [Compound] (M) -6.31878) was 81.5241, the “Gi1 hCB1 response” value (hCB1 [1]; Log [Compound] (M) -6.72585) was 77.4731 and the “Gi1 hCB1 response” value (hCB1 [1]; Log [Compound] (M) -7.14267) was 64.4023. The “Gi1 hCB1 response” value (hCB1 [1]; Log [Compound] (M) -7.55284) was 52.8535, the “Gi1 hCB1 response” value (hCB1 [1]; Log [Compound] (M) -8) was 17.9832 and the “Gi1 hCB1 response” value (hCB1 [1]; Log [Compound] (M) -8.22186) was 31.0987. The “Gi1 hCB1 response” value (hCB1 [1]; Log [Compound] (M) -8.39794) was 14.4917, the “Gi1 hCB1 response” value (hCB1 [1]; Log [Compound] (M) -8.68787) was 15.566 and the “Gi1 hCB1 response” value (hCB1 [1]; Log [Compound] (M) -9.15521) was 3.502. For the same compound, the “Gi1 hCB1 response” value (hCB1 [1]; Log [Compound] (M) -9.61989) was 4.487, the “Gi1 hCB1 response” value (hCB1 [1]; Log [Compound] (M) -10.0969) was -7.576 and the “Gi1 hCB1 response” value (hCB1 [1]; Log [Compound] (M) -10.5529) was -10.5308. For the same compound, the “Gi1 hCB1 response” value (hCB1 [1]; Log [Compound] (M) -11.0177) was -2.272, the “Gi1 hCB1 response” value (hCB1 [1]; Log [Compound] (M) -11.4949) was -1.802 and the “Gi1 hCB1 response” value (hCB1 [1]; Log [Compound] (M) -11.9208) was -1.466. For the same compound, the “Gi1 hCB1 response” value (hCB1 [1]; Log [Compound] (M) -12.3979) was 8.695, the “Gi1 hCB1 response” value (hCB1 [1]; Log [Compound] (M) -12.8861) was 6.367 and the “Gi1 hCB1 response” value (hCB1 [1]; Log [Compound] (M) -13, individual replicate values) was -3.951. For the same compound, the “Gi1 hCB1” value (hCB1 [1]; Log [Compound] (M) -4.22186) was 95.271 and 72.3781, the “GoB hCB1” value (hCB1 [1]; Log [Compound] (M) -4.22186) was 82.2993 and 86.8881 and the “Gi1 hCB1” value (hCB1 [1]; Log [Compound] (M) -4.63927) was 89.1198 and 73.8984. The “GoB hCB1” value (hCB1 [1]; Log [Compound] (M) -4.63927) was 85.86 and 78.0511, the “Gi1 hCB1” value (hCB1 [1]; Log [Compound] (M) -5.05788) was 89.7364 and 64.618 and the “GoB hCB1” value (hCB1 [1]; Log [Compound] (M) -5.05788) was 82.8568 and 73.8497. For the same compound, the “Gi1 hCB1” value (hCB1 [1]; Log [Compound] (M) -5.47381) was 86.2831 and 71.6021, the “GoB hCB1” value (hCB1 [1]; Log [Compound] (M) -5.47381) was 95.4631 and 77.0615 and the “Gi1 hCB1” value (hCB1 [1]; Log [Compound] (M) -5.89285) was 88.8731 and 77.0341. For the same compound, the “GoB hCB1” value (hCB1 [1]; Log [Compound] (M) -5.89285) was 89.4387 and 75.2907, the “Gi1 hCB1” value (hCB1 [1]; Log [Compound] (M) -6.31878) was 83.354 and 71.8555 and the “GoB hCB1” value (hCB1 [1]; Log [Compound] (M) -6.31878) was 83.9538 and 76.1935. For the same compound, the “Gi1 hCB1” value (hCB1 [1]; Log [Compound] (M) -6.72585) was 79.6848 and 68.7673, the “GoB hCB1” value (hCB1 [1]; Log [Compound] (M) -6.72585) was 88.3597 and 69.9433 and the “Gi1 hCB1” value (hCB1 [1]; Log [Compound] (M) -7.14267) was 72.1769 and 53.833. For the same compound, the “GoB hCB1” value (hCB1 [1]; Log [Compound] (M) -7.14267) was 73.7932 and 56.1409, the “Gi1 hCB1” value (hCB1 [1]; Log [Compound] (M) -7.55284) was 51.6729 and 43.6499 and the “GoB hCB1” value (hCB1 [1]; Log [Compound] (M) -7.55284) was 61.8702 and 41.6614. For the same compound, the “Gi1 hCB1” value (hCB1 [1]; Log [Compound] (M) -8) was 32.3713 and 22.1909, the “GoB hCB1” value (hCB1 [1]; Log [Compound] (M) -8) was 32.3776 and 21.4874 and the “Gi1 hCB1” value (hCB1 [1]; Log [Compound] (M) -8.22186) was 19.0514 and 17.5665. For the same compound, the “GoB hCB1” value (hCB1 [1]; Log [Compound] (M) -8.22186) was 16.1566 and 14.2824, the “Gi1 hCB1” value (hCB1 [1]; Log [Compound] (M) -8.39794) was 17.4789 and 12.7996 and the “GoB hCB1” value (hCB1 [1]; Log [Compound] (M) -8.39794) was 19.8252 and 10.1677. For the same compound, the “Gi1 hCB1” value (hCB1 [1]; Log [Compound] (M) -8.68787) was 7.998 and 0.7635, the “GoB hCB1” value (hCB1 [1]; Log [Compound] (M) -8.68787) was 1.86 and 2.6849 and the “Gi1 hCB1” value (hCB1 [1]; Log [Compound] (M) -9.15521) was 2.91 and 0.2884. The “GoB hCB1” value (hCB1 [1]; Log [Compound] (M) -9.15521) was 1.788 and -5.44, the “Gi1 hCB1” value (hCB1 [1]; Log [Compound] (M) -9.61989) was 1.7386 and -5.445 and the “GoB hCB1” value (hCB1 [1]; Log [Compound] (M) -9.61989) was -0.8737 and -6.308. The “Gi1 hCB1” value (hCB1 [1]; Log [Compound] (M) -10.0969) was 1.245 and -4.415, the “GoB hCB1” value (hCB1 [1]; Log [Compound] (M) -10.0969) was -2.852 and -5.544 and the “Gi1 hCB1” value (hCB1 [1]; Log [Compound] (M) -10.5529) was 0.9678 and -3.3699. For the same compound, the “GoB hCB1” value (hCB1 [1]; Log [Compound] (M) -10.5529) was -2.528 and -5.649, the “Gi1 hCB1” value (hCB1 [1]; Log [Compound] (M) -11.0177) was 2.371 and -4.415 and the “GoB hCB1” value (hCB1 [1]; Log [Compound] (M) -11.0177) was -2.294 and -7.871. The “Gi1 hCB1” value (hCB1 [1]; Log [Compound] (M) -11.4949) was -0.1731 and -5.27, the “GoB hCB1” value (hCB1 [1]; Log [Compound] (M) -11.4949) was 0.583 and -6.36 and the “Gi1 hCB1” value (hCB1 [1]; Log [Compound] (M) -11.9208) was 0.6903 and -3.196. The “GoB hCB1” value (hCB1 [1]; Log [Compound] (M) -11.9208) was 1.158 and -6.864, the “Gi1 hCB1” value (hCB1 [1]; Log [Compound] (M) -12.3979) was 1.692 and -4.146 and the “GoB hCB1” value (hCB1 [1]; Log [Compound] (M) -12.3979) was 3.838 and -6.76. For the same compound, the “Gi1 hCB1” value (hCB1 [1]; Log [Compound] (M) -12.8861) was 2.602 and -5.207, the “GoB hCB1” value (hCB1 [1]; Log [Compound] (M) -12.8861) was -0.1004 and -5.944 and the “Gi1 hCB1” value (hCB1 [1]; Log [Compound] (M) -13) was 1.677 and 3.693. The “GoB hCB1” value (hCB1 [1]; Log [Compound] (M) -13) was -0.7478 and -0.8395, the “Gi1 hCB1” value (hCB1 [1]; Log [Compound] (M) cell empty) was -2.293 and the “GoB hCB1” value (hCB1 [1]; Log [Compound] (M) cell empty) was -5.1625. The “pEC50 [95% CI]” value (hCB1 [1]; hCB1 Gi1) was 7.72 [7.6 – 7.8], the “pEC50 [95% CI]” value (hCB1 [1]; hCB1 GoB) was 7.8 [7.7 – 7.9] and the “pEC50 [95% CI]” value (hCB1 [1]; hCB1 Gz) was 7.5 [6.9 – 7.8]. For the same compound, the EC50 (hCB1 [1]; hCB1 GoB) was 18 nM, the EC50 (hCB1 [1]; hCB1 Gz) was 33 nM and the Emax (hCB1 [1]; read-out: Emax [95% CI], hCB1 Gi1) was 82%. It also gave an Emax (hCB1 [1]; read-out: Emax [95% CI], hCB1 GoB) of 83%, an Emax (hCB1 [1]; read-out: Emax [95% CI], hCB1 Gz) of 98% and an EC50 (hCB1 [2]) of 473 nM. The “Lance Ultra cAMP pEC50” value (hCB1 [2]) was 6.3 [5.8 – 7.0] and the Emax (hCB1 [2]; CHO) was 53%.
